Results on 1 compound are retold here after patent publication US20090093460A1, “Compositions” (AstraZeneca AB, priority 2003, published 2009).

Assay [1] concerns the target T1, 5-HT1A receptors (Homo sapiens, UniProt P08908).
T1 sequence (P08908 1-422): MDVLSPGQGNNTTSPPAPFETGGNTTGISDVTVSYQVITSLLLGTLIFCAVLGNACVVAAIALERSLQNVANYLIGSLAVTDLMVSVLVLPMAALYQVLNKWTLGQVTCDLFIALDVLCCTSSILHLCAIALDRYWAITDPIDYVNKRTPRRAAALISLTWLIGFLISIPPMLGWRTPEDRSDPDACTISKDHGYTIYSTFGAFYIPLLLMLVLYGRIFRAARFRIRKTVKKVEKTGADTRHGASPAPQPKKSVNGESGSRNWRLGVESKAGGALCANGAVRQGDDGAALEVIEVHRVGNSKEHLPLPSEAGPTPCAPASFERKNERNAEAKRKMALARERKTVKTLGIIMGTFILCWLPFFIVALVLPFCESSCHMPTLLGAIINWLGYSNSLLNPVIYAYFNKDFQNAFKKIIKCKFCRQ
Put plainly: PET scans of primate subjects, 5-HT1A occupancy. In kind it is in vivo. Details: from tissue; host or cells: brain of living primate subjects (PET). The note with it: preliminary PET scans. The text has this: The compound of Formula I is a dibenzothiazepine that has shown antidopaminergic activity.

Assay [2] concerns the target H1 receptor (Homo sapiens, UniProt P35367). Put plainly: H1 receptor binding. The procedure:
The H1 receptor binding method was carried out in accordance with the method set out in De Backer M D et al. Biochem. Biophys. Res Commun. 197 (3); 1601, 1993.

H1 receptor, sequence (P35367 whole entry): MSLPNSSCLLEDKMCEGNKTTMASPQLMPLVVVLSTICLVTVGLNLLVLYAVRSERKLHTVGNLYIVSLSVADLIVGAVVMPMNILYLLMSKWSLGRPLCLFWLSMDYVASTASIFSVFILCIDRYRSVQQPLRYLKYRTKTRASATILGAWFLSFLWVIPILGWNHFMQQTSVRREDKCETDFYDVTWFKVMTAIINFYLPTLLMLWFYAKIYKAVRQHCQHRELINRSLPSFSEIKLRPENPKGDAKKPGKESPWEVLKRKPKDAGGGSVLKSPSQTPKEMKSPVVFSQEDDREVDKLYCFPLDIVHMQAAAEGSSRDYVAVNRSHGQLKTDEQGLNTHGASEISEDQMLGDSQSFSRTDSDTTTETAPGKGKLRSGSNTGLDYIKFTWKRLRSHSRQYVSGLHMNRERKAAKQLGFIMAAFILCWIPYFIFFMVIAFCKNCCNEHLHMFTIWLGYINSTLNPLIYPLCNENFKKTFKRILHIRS

`c1ccc2c(c1)N=C(N1CCNCC1)c1ccccc1S2` [11-piperazin-1-yldibenzo[b,f][1,4]thiazepine]: the “receptor occupancy by PET” value in assay [1] was “occupies”. The affinity in assay [2] corresponds to a Ki of 1.15 nM.
